Test results reported in ChEMBL document CHEMBL3714766, “Tetrahydroisoquinoline compounds and their use as pyruvate dehydrogenase kinase inhibitors” (2015).

Assays:
[1] = molecular target: T1, Pyruvate dehydrogenase kinase (Homo sapiens, UniProt Q15119+Q15120+Q16654+Q15118); assay: Inhibition of pyruvate dehydrogenase kinase in human PC3 cells incubated for 90 mins by phospho(Ser293)E1alpha MSP ELISA method; assay type: cell-based; conditions: pc-3
[2] = molecular target: T1, Pyruvate dehydrogenase kinase; assay: Inhibition of pyruvate dehydrogenase kinase (unknown origin) assessed as reduction in E1 phosphorylation incubated for 1 hr by DELFIA method; assay type: protein assay

| SMILES | IC50 [1] [µM] | IC50 [2] [µM] |
| --- | --- | --- |
| Cc1cnc(Cl)nc1-c1ccc2c(c1)CC[C@H](c1cccnc1)N2C(=O)c1ccc(O)cc1O | 1 | 0.1 |
| COc1cnc(Cl)nc1-c1ccc2c(c1)CC[C@H](c1cccnc1)N2C(=O)c1cc(Cl)c(O)cc1O | 1 | 0.1 |
